The values that follow come from patent publication US20260055141A1, “COMPOSITIONS AND METHODS FOR CONTROLLING FOOD INTAKE, ENERGY EXPENDITURE, AND BODY WEIGHT FOR THE TREATMENT OF OBESITY AND METABOLIC DISEASES” (The Trustees of the University of Pennsylvania, priority 2022, published 2026).

pKd: −log10 of the molar value. “And” between values parts separate entries of the source, which are not always exact repeats. Equal values may be shown once. “Also recorded” adds a separate entry of the source. Read-outs that look alike come from different tables or passages of the source. Non-standard residues stand in square brackets, D forms with d. No end group written: not given here.

Usually pKd stands for −log10 of the Kd, conventionally taken in molar units. Lower therefore signals a large Kd.

Data set [1] addresses T1, human GPR75 (372-540 aa region) (Homo sapiens, UniProt O95800).
T1 construct: human GPR75 (372-540 aa region); purchased antibodies-online.com ABIN5709609
Kind of data set: Surface Plasmon Resonance (SPR) binding at GPR75. As to conditions: for Bmax ([Signal (RU)]): SPR fit; for pKd / kd / ka (1/(M*s)): SPR; for kon: read-out: ka (1/(M*s)). The protocol:
SU75-36 binding at the human GPR75 (372-540 aa region; available on the world wide web at antibodies-online.com cat #ABIN5709609) was measured via a Nicoya Open SPR instrument using His-tagged GPR75 bound to an NTA-coated gold sensor (Nicoya cat #SEN-AU-100-10-NTA, range=4.08-204 μM) using HBSS (in-house) at 20 μL/min flow rate. Data was fit via a global, one-to-one model using Nicoya OpenSPR software.

Data set [2] addresses T2, human GLP-1R (21-139aa region) (Homo sapiens, UniProt P43220).
T2 construct: human GLP-1R (21-139aa region); purchased rndsystems.com (R&D Systems) 10956-GL
Kind of data set: Surface Plasmon Resonance (SPR) binding at hGLP-1R. The note with it: for binding at hGLP-1R: Ex-4 positive and ODN negative control. The protocol: SU75-36, SU75-37, Ex-4, and ODN binding at the human GLP-1R (21-139aa region; available on the world wide web at rndsystems.com cat #10956-GL) was measured via a Nicoya Open SPR instrument using His-tagged hGLP-1R bound to an NTA-coated gold sensor (Nicoya cat #SEN-AU-100-10-NTA) using HBSS (in-house) at 20 μL/min flow rate. Data was fit via a global, one-to-one model using Nicoya OpenSPR software. In-house Ex-4 and ODN were used as the positive and negative controls, respectively.

The format of data set [3] is in vivo, rat. The note with it: for food intake compared to control: SU75-36 20 or 200 μg, SU75-37 20 μg, 1, 3, 6, 24 h; for body weight change after 24 hours: any dosage, rats fed chow or HFD; for kaolin intake (pica, model of malaise and nausea): rat, in vivo. Here is the method:
Adult male Sprague-Dawley rats (Charles River) were individually housed under a 12 h-light: 12 h-dark cycle in a temperature and humidity-controlled satellite vivarium and had ad libitum access to water and chow (5001, LabDiet) or a 60% high fat diet (HFD): D12492, Research Diets) and when applicable had ad libitum access to kaolin pellets (K50001, Research Diets). Rats were exposed to kaolin for at least 5 days prior to measuring kaolin consumption in pica testing. Except for studies conducted in the bioDAQ, for all feeding studies rats were housed in hanging wire cages to allow for accurate measurement of food spillage. Experiments were conducted under the National Institutes for Health Guide for the Care and Use of Laboratory Animals and all procedures were approved by the Institutional Animal Care and Use Committee at the University of Pennsylvania.
For cannula implantation, rats were anesthetized by intraperitoneal injection of a mixture containing ketamine (90 mg/kg, Butler Animal Health Supply), xylazine (2.7 mg/kg, Anased), and acepromazine (0.64 mg/kg, Butler Animal Health Supply) (KAX) and then placed into a stereotaxic apparatus. Each rat was stereotaxically implanted with a guide cannula (26-ga, Plastics One) aimed at the fourth ventricle (guide cannula coordinates: on midline. 2.5 mm anterior to occipital suture, 5.2 mm ventral to skull; internal cannula aimed 7.2 mm ventral to skull) or the lateral ventricle (guide cannula coordinates: 1.5 mm lateral to midline, 0.9 mm posterior to bregma. 1.8 mm ventral to skull; internal cannula aimed 3.8 mm ventral to skull). For all cannulas, dummies (no projection beyond guide) were inserted in the guide cannula and left until infusions were performed. For all surgeries, rats received post-operative temperature support and analgesia was provided immediately following surgery and for two post-operative days (2 mg/kg meloxicam).
For all studies measuring food intake following drug treatment, central injections were given at a volume of 2 μL using a Hamilton syringe terminating in an injector tip extending 2.0 mm beyond the guide cannula. For acute treatment days, rats were food deprived for 2 hours before the dark cycle and injections were done immediately prior to the dark cycle onset. Food and kaolin intake was measured 1, 3, 6, and 24 hours after injections were completed and food crumbs were weighed and accounted for between each timepoint. Body weight was measured during injections and 24 hours after. Injection treatments were organized in a counterbalanced, within-subjects design and separated by ≥72 h.
In a separate experiment, chow maintained (n=10) and diet-induced obese (DIO) rats (n=12) were administered 20 μg SU75-36, 200 μg SU75-36, or 20 μg SU75-37 by intracerebroventricular injection to the lateral ventricle and observed over 24 hours. One group of rats was administered a vehicle without a GPR75 inhibitor as a negative control. All rats were given ad libitum access to access to water, kaolin pellets to assess pica behavior, and food, either a standard chow diet or a 60% high fat diet (HFD). The food intake of chow (FIG. 8A) or HFD (FIG. 8B), and kaolin take of chow-maintained rats (FIG. 8C) and HFD-maintained rats (FIG. 8D) of each rat was observed 1, 3, 6, and 24 hours after administration of the GPR75 inhibitor.
Rats were weighed at the beginning of the experiment and 24 hours after administration of the GPR75 inhibitor. The weight change of each rat after 24 hours was then calculated. […] (FIGS. 8E, 8F).

Data set [4] can be described thus: Peripheral (IP) administration, food intake and body weight in DIO mice. It is filed as in vivo, mouse. The note with it: for 24 h food intake: IP 0.5 and 5 mg/kg, male HFD fed mice (FIG. 12 legend). Here is the method: DIO mice were administered 0.5 mg/kg or 5.0 mg/kg of either SU75-36 or SU75-37 in a vehicle by […] injection and observed over 24 hours. One group of mice was administered a vehicle as a negative control. All mice were given ad libitum access to water and a 60% HFD. […] (FIGS. 12A and 12C). […] Mice were weighed at the beginning of the experiment and 24 hours after administration. The weight change of each mouse after 24 hours was then calculated. […] (FIGS. 12B and 12D) This experiment was then repeated for SU75-37 at a higher dose (10 mg/kg). […] (FIG. 13A).

Where [5] appears, read: His-tagged GPR75 on NTA sensor, HBSS, global one-to-one fit.
[6] abbreviates: lateral ventricle, chow and HFD rats.
Setting [7] is: 5 mg/kg peripheral injection, DIO mice, 60% HFD, 3 and 24 h.

For “H[dS]QGTFTSDLSKYLEEEVREFIWLKNGGPSDVNTDRPGLLDLK-NH2 [SU75-36]”, the “Bmax ([Signal (RU)])” value in data set [1] (curves at 10.2-102 μM peptide) came out at 69.54 RU. Moreover, the pKd is 5.11 in data set [1] (setting [5]); 5.11 in data set [1] (Nicoya OpenSPR software, one-to-one model, global fit); 3.74 in data set [2] (His-tagged hGLP-1R on NTA sensor, HBSS). In addition, the “kd” value in data set [1] (one-to-one model, global fit) is 0.00742 s⁻¹. Moreover, the “ka (1/(M*s))” value in data set [1] (one-to-one model, global fit, listed as Drug 36) was determined as 956 M⁻¹ s⁻¹. In data set [1], the kon is 956 M⁻¹ s⁻¹. Also, the “binding at hGLP-1R” value in data set [2] is reported as “poor binding”. Moreover, in data set [3] (lateral ventricle, 200 μg, chow and HFD rats), the “food intake compared to any of the other groups” value was “further decrease”. Also, the “food intake compared to control” value in data set [3] (setting [6]) and in data set [4] (setting [7]) was “significant decrease in food intake” each time. Moreover, the “body weight change after 24 hours” value in data set [3] (lateral ventricle) is recorded as “significant decrease in weight”; in data set [4] (0.5 or 5.0 mg/kg peripheral injection, DIO mice), “significant decrease in weight”. Moreover, in data set [3], the “kaolin intake (pica, model of malaise and nausea)” value was “absence of kaolin intake”. Also, the “24 h food intake” value in data set [4] is on record as “suppresses”.

Take “TFTSDLSKYLEEEVREFIWLKNGGPSDVNTDRPGLLDLK-NH2 [SU75-37]”: the “Bmax ([Signal (RU)])” value in data set [1] (curve at 4.9 μM peptide) was 3.80 RU; in data set [1] (curve at 4.93 μM peptide), 3.57 RU; in data set [1] (curve at 12.3 μM peptide, listed as Drug37), 11.98 RU and 9.39 RU; in data set [1] (curve at 24.65 μM peptide) it was 8.98 RU; in data set [1] (curve at 49.3 μM peptide, listed as Drug37), 47.66 RU and 51.69 RU; in data set [1] (curve at 92.4 μM peptide), 67.67 RU. Moreover, the “Bmax ([Signal (RU)])” value in data set [1] (curve at 123.23 μM peptide) is on record as 110.32 RU. This substance also had a pKd in data set [1] (setting [5]) of 4.62. Moreover, the “ka (1/(M*s))” value in data set [1] (one-to-one model, global fit) worked out at 592 M⁻¹ s⁻¹. Besides, in data set [1] (one-to-one model, global fit), the “kd” value was 0.0141 s⁻¹. The kon in data set [1] was 592 M⁻¹ s⁻¹. Besides, the “binding at hGLP-1R” value in data set [2] is reported as “did not bind; also recorded: does not bind”. Moreover, the “food intake compared to control” value in data set [3] (setting [6]) was “significant decrease in food intake”; in data set [4] (setting [7]) it was “significant decrease in food intake”; in data set [4] (IP 10 mg/kg, HFD fed mice, 10 mg/kg) it was “significant decrease in food intake”; in data set [4] (IP 10 mg/kg, HFD fed mice, listed as 37, 10 mg/kg), “suppresses”. Also, the “body weight change after 24 hours” value in data set [3] (lateral ventricle) is “significant decrease in weight”; in data set [4] (IP 10 mg/kg, HFD fed mice), “significant decrease in weight”. In data set [3], the “kaolin intake (pica, model of malaise and nausea)” value is given as “absence of kaolin intake”. For the same substance, the “24 h food intake” value in data set [4] is recorded as “suppresses”.
